Measurements from patent US8513276B2, “Imidazo[1,2-a]pyridine compounds for use in treating cancer” (Astex Therapeutics Limited, priority 2006, dated 2013).
Structures can show the parent of a compound that is named as a salt. Where two headings read alike, the source gives them in different places.

Assays:
[1] = biological target: T1, FGFR3 (Homo sapiens, UniProt P22607); assay: FGFR3 in vitro kinase inhibitory activity assay (TRF); type: biochemical
T1 construct: Enzymes (from Upstate) were prepared at 2× final concentration in 1× kinase assay buffer; purchased Upstate
Experimental: Enzymes (from Upstate) were prepared at 2× final concentration in 1× kinase assay buffer (as described below). Enzymes were then incubated with test compounds, biotinylated Flt3 substrate (biotin—DNEYFYV) (Cell Signalling Technology Inc.) and ATP. The reaction was allowed to proceed for 3 hours (FGFR3) or 2.5 hrs (PDGFR-beta) at room temperature on a plate shaker at 900 rpm before being stopped with 20 μl of 35 mM EDTA, pH 8 (FGFR3) or 55 mM EDTA, pH 8 (PDGFR-beta). Twenty μl of 5× detection mix (50 mM HEPES pH 7.5, 0.1% BSA, 2 nM Eu-anti-pY (PY20) (PerkinElmer) 15 nM SA-XL665 (Cisbio) for FGFR3 and 50 mM HEPES, pH 7.5, 0.5 M KF, 0.1% BSA, 11.34 nM Eu-anti-pY (PT66) (PerkinEimer), 94 nM SA-XL665 (Cisbio) for PDGFR-beta) was then added to each well and the plate sealed and incubated at room temperature for one hour on a plate shaker at 900 rpm. The plate was then read on a Packard Fusion plate reader in TRF mode.
Kinase Assay buffers were:
A: 50 mM HEPES pH 7.5, 6 mM MnCl2, 1 mM DTT, 0.1% TritonX-100

[2] = system: LP-1 cell line; assay: Cell-based pERK ELISA in LP-1 multiple myeloma cells; details: Homo sapiens
Experimental: LP-1 or JIM-1 multiple myeloma cells were seeded in 96 well plates at 1×10^6 cells/ml in 200 μl per well in serum free media. HUVEC cells were seeded at 2.5×10^5 cells/ml and allowed to recover for 24 h prior to transfer to serum free media. Cells were incubated for 16 h at 37° C. prior to the addition of a test compound for 30 minutes. Test compounds were administered at a 0.1% final DMSO concentration. Following this 30 minute incubation a FGF-1/Heparin (FGF-1 at 100 ng/ml final and Heparin at 100 ug/ml) mixture or VEGF^165 ([…]) was added to each of the wells for a further 5 minutes. The media was removed and 50 ul ERK ELISA lysis buffer (R and D Systems DuoSet ELISA for pERK and Total ERK #DYC-1940E, DYC-1018E) added. ELISA plates and standards were prepared according to the standard DuoSet protocols and the relative amounts of pERK to total ERK in each sample calculated according to the standard curve.
In particular, compounds of the invention were tested against the LP-1 cell line (DSMZ no.: ACC 41) derived from human multiple myeloma.

[3] = given as a bound, read-out: IC50 in the FGFR3 assay
[4] = LP-1 cell line, given as a bound, read-out: IC50 in LP-1 pERK ELISA
[5] = in vitro kinase assay, 8 μM ATP, read-out: FGFR3 IC50
[6] = LP-1 cells, FGF-1/heparin stimulation, pERK relative to total ERK, read-out: LP-1 pERK ELISA

T1 sequence (P22607 23-806): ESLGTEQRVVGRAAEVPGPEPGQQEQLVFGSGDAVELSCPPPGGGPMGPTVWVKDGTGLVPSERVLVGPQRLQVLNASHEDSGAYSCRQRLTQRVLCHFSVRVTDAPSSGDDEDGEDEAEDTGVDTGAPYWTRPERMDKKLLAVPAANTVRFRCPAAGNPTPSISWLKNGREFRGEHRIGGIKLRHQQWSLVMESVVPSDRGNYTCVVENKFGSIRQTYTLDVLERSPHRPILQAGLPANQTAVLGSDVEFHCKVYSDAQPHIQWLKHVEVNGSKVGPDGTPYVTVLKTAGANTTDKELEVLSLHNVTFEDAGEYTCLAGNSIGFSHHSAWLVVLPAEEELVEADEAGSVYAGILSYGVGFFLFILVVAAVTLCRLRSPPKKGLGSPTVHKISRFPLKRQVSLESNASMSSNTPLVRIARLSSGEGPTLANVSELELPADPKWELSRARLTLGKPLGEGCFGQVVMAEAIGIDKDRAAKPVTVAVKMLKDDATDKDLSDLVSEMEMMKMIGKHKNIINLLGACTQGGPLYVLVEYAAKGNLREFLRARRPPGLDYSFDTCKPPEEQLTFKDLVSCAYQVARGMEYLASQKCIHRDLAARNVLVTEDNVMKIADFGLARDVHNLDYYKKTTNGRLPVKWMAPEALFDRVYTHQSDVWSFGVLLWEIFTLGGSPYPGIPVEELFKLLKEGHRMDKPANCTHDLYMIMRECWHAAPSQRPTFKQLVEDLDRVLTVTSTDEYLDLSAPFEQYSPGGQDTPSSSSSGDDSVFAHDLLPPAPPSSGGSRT

Compound | IC50 [1, 3] [µM] | IC50 [2, 4] [µM] | IC50 [1, 5] [µM] | IC50 [2, 6] [µM]
Fc1ccc(-c2ccn3c(-c4cccc(Nc5cnccn5)c4)cnc3c2)cc1 [Example 1, {3-[7-(4-Fluoro-phenyl)-imidazo[1,2-a]pyridin-3-yl]-phenyl}-pyrazin-2-yl-amine] | < 1 | – | – | –
c1cc(CN2CCOCC2)cc(-c2ccn3c(-c4cccc(Nc5nncs5)c4)cnc3c2)c1 [Example 2] | < 1 | < 1 | – | –
Cc1nnc(Nc2cccc(-c3cnc4cc(-c5cccc(CN6CCOCC6)c5)ccn34)c2)s1 [Example 3] | < 1 | < 1 | – | –
CN1CCN(Cc2ccc(-c3ccn4c(-c5cccc(Nc6cnn[nH]6)c5)cnc4c3)cc2)CC1 [Example 4, (3-{7-[4-(4-Methyl-piperazin-1-ylmethyl)-phenyl]-imidazo[1,2-a]pyridin-3-yl}-phenyl)-(3H-[1,2,3]triazol-4-yl)-amine formate salt] | < 1 | < 1 | – | –
Fc1ccc(-c2ccn3c(-c4cccc(Nc5ccncc5)c4)cnc3c2)cc1 [Example 6, {3-[7-(4-Fluoro-phenyl)-imidazo[1,2-a]pyridin-3-yl]-phenyl}-pyridin-4-yl-amine formate salt] | < 1 | – | – | –
Fc1ccc(-c2ccn3c(-c4cccc(Nc5nncs5)c4)cnc3c2)cc1 [Example 7, {3-[7-(4-Fluoro-phenyl)-imidazo[1,2-a]pyridin-3-yl]-phenyl}-[1,3,4]thiadiazol-2-yl-amine] | < 1 | < 1 | 0.0022 | 0.069
c1ccc(Nc2cccc(-c3cnc4cc(-c5cccc(CN6CCOCC6)c5)ccn34)c2)cc1 [Example 8, {3-[7-(3-Morpholin-4-ylmethyl-phenyl)-imidazo[1,2-a]pyridin-3-yl]-phenyl}-phenyl-amine] | < 1 | – | – | –
CN1CCN(Cc2cccc(-c3ccn4c(-c5cccc(Nc6nncs6)c5)cnc4c3)c2)CC1 [Example 9, (3-{7-[3-(4-Methyl-piperazin-1-ylmethyl)-phenyl]-imidzao[1,2-a]pyridin-3-yl}-phenyl)-[1,3,4]thiadiazol-2-yl-amine formate salt] | < 1 | < 1 | – | –
Fc1ccc(-c2cnc3c(-c4cccc(Nc5nncs5)c4)cnn3c2)cc1 [Example 10, {3-[6-(4-Fluoro-phenyl)-pyrazolo[1,5-a]pyrimidin-3-yl]-phenyl}-[1,3,4]thiadiazol-2-yl-amine] | < 1 | < 1 | 0.00482 | 0.039
c1cc(Nc2nncs2)cc(-c2cnc3cc(N4CCOCC4)ccn23)c1 [Example 19, [3-(7-Morpholin-4-yl-imidazo[1,2-a]pyridin-3-yl)-phenyl]-[1,3,4]thiadiazol-2-yl-amine] | < 1 | – | – | –
CCS(=O)(=O)N1CCN(c2ccn3c(-c4cccc(Nc5nncs5)c4)cnc3c2)CC1 [Example 21, {3-[7-(4-Ethanesulfonyl-piperazin-1-yl)-imidazo[1,2-a]pyridin-3-yl]-phenyl}-[1,3,4]thiadiazol-2-yl-amine Hydrochloride] | < 1 | – | – | –
O=C(c1cccc(-c2ccn3c(-c4cccc(Nc5nncs5)c4)cnc3c2)c1)N1CCOCC1 [Example 22, Morpholin-4-yl-(3-{3-[3-([1,3,4]thiadiazol-2-ylamino)-phenyl]-imidazo[1,2-a]pyridin-7-yl}-phenyl)-methanone Hydrochloride] | < 1 | – | – | –
Fc1ccc(-c2ccc3c(c2)ncn3-c2cccc(Nc3nncs3)c2)cc1 [Example 23, {3-[5-(4-Fluoro-phenyl)-benzoimidazol-1-yl]-phenyl}-[1,3,4]thiadiazol-2-yl-amine] | < 1 | – | – | –
Nc1nc(Nc2cccc(-c3cnc4cc(-c5ccc(F)cc5)ccn34)c2)n[nH]1 [Example 27, N*3*-(3-[7-(4-Fluoro-phenyl)-imidazo[1,2-a]pyridin-3-yl]-phenyl}-1H-[1,2,4]triazole-3,5-diamine] | < 1 | – | 0.13 | –
Fc1ccc(-c2ccn3c(-c4cccc(Nc5nnco5)c4)cnc3c2)cc1 [Example 29, {3-[7-(4-Fluoro-phenyl)-imidazo[1,2-a]pyridin-3-yl]phenyl}-[1,3,4]oxadiazol-2-yl-amine] | < 1 | – | 0.011 | –
Fc1ccc(-c2cnc3c(-c4cc(Nc5nncs5)ccn4)cnn3c2)cc1 [Example 31, {2-[6-(4-Fluoro-phenyl)-pyrazolo[1,5-a]pyrimidin-3-yl]-pyridin-4-yl}-[1,3,4]thiadiazol-2-yl-amine] | < 1 | – | 0.35 | –

The next lines start with the values.

IC50 [1, 3] [µM] | IC50 [2, 4] [µM] | IC50 [1, 5] [µM] | IC50 [2, 6] [µM] | Compound
< 1 | – | – | – | c1cc(Nc2nncs2)cc(-c2cnc3cc(-c4ccnc(OC5CCOCC5)c4)ccn23)c1 [Example 33]
< 1 | – | 0.48 | – | Cn1ccnc1Nc1cccc(-c2cnc3cc(-c4ccc(F)cc4)ccn23)c1 [Example 34, {3-[7-(4-Fluoro-phenyl)-imidazol[1,2-a]pyridin-3-yl]-phenyl}-(1-methyl-1H-imidazol-2-yl)-amine Hydrochloride]
< 1 | – | – | – | OCc1cccc(-c2ccn3c(-c4cccc(Nc5nncs5)c4)cnc3c2)c1 [Example 35, (3-{3-[3-([1,3,4]Thiadiazol-2-ylamino)-phenyl]-imidazo[1,2-a]pyridin-7-yl}-phenyl)-methanol]
< 1 | – | – | – | CCOC(=O)N1CCN(c2ccn3c(-c4cccc(Nc5nncs5)c4)cnc3c2)CC1 [Example 36, 4-{3-[3-([1,3,4]Thiadiazol-2-ylamino)-phenyl]-imidazo[1,2-a]pyridin-7-yl}-piperazine-1-carboxylic acid ethyl ester]
< 1 | – | 0.00255 | – | Nc1ccc(-c2ccn3c(-c4cccc(Nc5nncs5)c4)cnc3c2)cn1 [Example 37, 5-{3-[3-([1,3,4]Thiadiazol-2-ylamino)-phenyl]-imidazo[1,2-a]pyridin-7-yl}-pyridin-2-ylamine Hydrochloride]
< 1 | – | – | – | CC(=O)N1CCN(c2ccn3c(-c4cccc(Nc5nncs5)c4)cnc3c2)CC1 [Example 38, 1-(4-{3-[3-([1,3,4]Thiadiazol-2-ylamino)-phenyl]-imidazo[1,2-a]pyridin-7-yl}-piperazin-1-yl)-ethanone]
< 1 | – | 0.115 | – | Fc1ccc(-c2ccn3c(-c4cccc(Nc5ncns5)c4)cnc3c2)cc1 [Example 39, {3-[7-(4-Fluoro-phenyl)-imidazo[1,2-a]pyridin-3-yl]phenyl}-[1,2,4]thiadiazol-5-yl-amine]
< 1 | – | – | – | CS(=O)(=O)NCc1cccc(-c2ccn3c(-c4cccc(Nc5nncs5)c4)cnc3c2)c1 [Example 40, N-(3-{3-[3-([1,3,4]Thiadiazol-2-ylamino)-phenyl]-imidazo[1,2-a]pyridin-7-yl}-benzyl)-methanesulfonamide]
< 1 | – | – | – | Cc1ccn2c(-c3cccc(Nc4nncs4)c3)cnc2c1 [Example 41, [3-(7-Methyl-imidazo[1,2-a]pyridin-3-yl)phenyl]-[1,3,4]thiadiazol-2-yl-amine Hydrochloride]
< 1 | – | – | – | Cn1cc(-c2ccn3c(-c4cccc(NCc5ccccc5)c4)cnc3c2)cn1 [Example 42, Benzyl-{3-[7-(1-methyl-1H-pyrazol-4-yl)-imidazo[1,2-a]pyridin-3-yl]phenyl}-amine]
< 1 | – | – | – | Clc1ccn2c(-c3cccc(NCc4ccccc4)c3)cnc2c1 [the product of Procedure F8, Benzyl-[3-(7-chloro-imidazo[1,2-a]pyridin-3-yl)-phenyl]-amine]
< 1 | – | – | – | Clc1ccn2c(-c3cccc(Nc4cnn[nH]4)c3)cnc2c1 [the product of Procedure G1, [3-(7-Chloro-imidazo[1,2-a]pyridin-3-yl)-phenyl]-(3H-[1,2,3]triazol-4-yl)-amine]
